# In publication PMC5641094, “A peptide antagonist of Prep1-p160 interaction improves ceramide-induced insulin resistance in skeletal muscle cells” (Oncotarget, 2017):
# Key:
# Prep1 mRNA = assay: Real-time RT-PCR of Prep1 mRNA in L6 cells; format: cell-based, rat; details: C2cer 10μM, 18h, normalized to GAPDH, three experiments in triplicate
# Description: (§1) Figure 2 Effect of ceramides on Prep1 and p160 mRNA expression and of Prep1-p160 coprecipitation L6 cells were treated with C2cer (10μM) for 18h and Prep1 (A) or p160 (B) mRNA levels were analyzed by real-time RT-PCR analysis. Data were normalized by the amount of GAPDH mRNA, used as internal control. Bars represent the mean ± SD of three independent experiments, each performed in triplicate. (C) L6 cells were treated with cycloheximide (CHX) at 40μg/mL concentration for 18h and the lysates were analyzed by Western blot with anti-p160 and beta-actin. The autoradiograph shown is representative of three different experiments and subjected to densitometric analysis. (D) Protein lysates from L6 cells treated with C2cer as indicated, were immunoprecipitated with Prep1 antibody and immunoblotted with p160 or Prep1 antibodies. The autoradiograph shown is representative of three different experiments and subjected to densitometric analysis. Asterisks denote statistically significant differences (*p<0.05; **p<0.01).
# (§2) Total cellular RNA was isolated from L6 cells by using the RNeasy kit (QIAGEN Sciences, Germany), according to manufacturer instructions. 1μg of cell RNA was reverse-transcribed using Superscript III Reverse Transcriptase (Life Technologies Carlsbad, CA, USA). PCR reactions were analyzed using IQTM SYBR Green Supermix (Bio-Rad, Hercules, CA). […]
# p160 mRNA = assay: Real-time RT-PCR of p160 mRNA in L6 cells; format: cell-based, rat; details: C2cer 10μM, 18h, normalized to GAPDH
# Description: as §1, §2
# p160_20-160 = molecular target: T1, p160_20-160 (Homo sapiens, UniProt Q9BQG0); assay: ELISA-like direct binding of biotinylated Prep1 peptides to coated p160_20-160; details: N-terminally biotinylated peptide variants; plate coated with p160_20-160 (0.1μM); streptavidin-HRP; one-site binding fit; triplicate, performed at least twice
# T1 construct: were added to a plate coated with p160_20-160 (0.1μM); His6; made in house
# T1 sequence (Q9BQG0 20-160): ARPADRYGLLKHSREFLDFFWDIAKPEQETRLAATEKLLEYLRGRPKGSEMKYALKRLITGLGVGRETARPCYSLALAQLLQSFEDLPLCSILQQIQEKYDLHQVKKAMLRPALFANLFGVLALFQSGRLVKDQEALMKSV
# Excerpt: To address the significance of the association between Prep1 and p160 mediated by C2cer, we generated a synthetic inhibitor of the Prep1/p160 interaction. […] The synthetic peptide covering such stretch of residues was therefore chosen to generate a potential inhibitor. […] Thus, we designed and chemically synthesized a peptide spanning residues 59-72, hereafter Prep1(59-72), which comprises the predicted α-helix and a short loop at the N-terminus (Supplementary Figure 2A, upper panel). […]
# Figure 3 Design and in vitro effects of Prep1(54-72) peptide on Prep1/p160 association (A) Binding curves of Prep1(59-72) and Prep1(54-72) peptides to p160_20-160 by ELISA-like assays. […] (C) L6 cells were incubated with increasing concentrations of the fluorescein-conjugated peptide (FITC-Prep1(54-72)) and peptide uptake was detected by FACS analysis of fluorescein-labeled cells. […] Protein lysates were immunoprecipitated with Prep1 antibodies and analyzed by Western blot using antibodies for p160 or for Prep1. […] The blots were detected by ECL and autoradiography. […]
# ELISA experiments were performed using an integrated platform for High-Throughput Screening (Hamilton Robotics, Bonaduz, CH) comprising a fully equipped Starlet 8 channel liquid handler, a robotic arm, a washer and a multi-wavelength plate reader. […] The binding was detected by anti-His HRP-conjugated antibody. […]
Molecule,increase of Prep1 mRNA levels (Prep1 mRNA) [fold],effect on p160 mRNA levels (p160 mRNA),Kd (p160_20-160) [nM]
"CCCCCCCCCCCCC/C=C/[C@@H](O)[C@H](CO)NC(C)=O [C2cer, D-erythro-Sphingosine, N-Acetyl-, reference compound]",3.2,not affected,–
Ac-KQAIYRHPLFPLLALLFEK-NH2 [Prep1(54-72)],–,–,180
